Here are results for 13 compounds from ChEMBL document CHEMBL1799993, “Design driven HtL: The discovery and synthesis of new high efficacy β₂-agonists” (Bioorg Med Chem Lett, 2011).

Experiment [1] concerns the target Beta-2 adrenergic receptor (Homo sapiens, UniProt P07550). The experiment is described as follows: Agonist activity at human adrenergic beta2 receptor expressed in H292 cells assessed as intracellular cAMP accumulation after 1 hr. In kind it is functional, cell-based. A general note: Cyclic AMP is a second messenger, typically raised through Gs and lowered through Gi signalling.

The subject of experiment [2] is Cavia porcellus. The experiment is described as follows: Bronchodilatory activity against histamine-induced bronchoconstriction in guinea pig at ED80 intratracheally administered 2 hrs before challenge measured after 2 hrs. It counts as functional, organism-based.
The test system of experiment [3] is Cavia porcellus. The experiment is described as follows: Bronchodilatory activity against histamine-induced bronchoconstriction in guinea pig at ED80 intratracheally administered 2 hrs before challenge measured up to 2 hrs. It counts as functional, organism-based.
The test system of experiment [4] is Cavia porcellus. The experiment can be described thus: Bronchodilatory activity against histamine-induced bronchoconstriction in guinea pig at ED80 intratracheally administered 2 hrs before challenge measured up to 12 hrs. It counts as functional. Particulars: inhaled or nasal.
The species named for experiment [5] is Cavia porcellus. The experiment can be described thus: Bronchodilatory activity against histamine-induced bronchospasm in guinea pig. It counts as functional, organism-based.

Activity calls are given as the source filed them. No cut-off for these calls is given here.

Chain of Beta-2 adrenergic receptor (P07550 whole entry): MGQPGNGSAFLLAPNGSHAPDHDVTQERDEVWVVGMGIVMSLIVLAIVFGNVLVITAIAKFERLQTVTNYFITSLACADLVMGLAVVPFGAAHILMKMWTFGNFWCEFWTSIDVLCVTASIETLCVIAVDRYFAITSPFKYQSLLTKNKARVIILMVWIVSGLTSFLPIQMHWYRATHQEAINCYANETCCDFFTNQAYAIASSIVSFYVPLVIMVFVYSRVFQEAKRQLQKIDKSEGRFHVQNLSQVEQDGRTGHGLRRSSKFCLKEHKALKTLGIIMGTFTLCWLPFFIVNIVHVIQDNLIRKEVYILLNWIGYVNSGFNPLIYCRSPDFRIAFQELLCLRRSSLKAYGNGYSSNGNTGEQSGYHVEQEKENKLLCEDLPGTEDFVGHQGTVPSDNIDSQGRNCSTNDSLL

Turning to `CC(C)N(CCNCCc1ccc(O)c2[nH]c(=O)sc12)C(=O)CCOCCc1ccccc1`, the EC50 in experiment [1] is 7.94 nM.

For `CCCCN(CCN(C)CCc1ccc(O)c2[nH]c(=O)sc12)C(=O)CCOCCc1ccccc1`, the EC50 in experiment [1] was 126 nM.

For the compound `CCCCN(CCNC[C@H](O)c1ccc(O)c2[nH]c(=O)sc12)C(=O)CCOCCc1ccccc1`, in experiment [1], the concentration for a half-maximal effect (EC50) is 0.794 nM.

Take `O=C(CCOCCc1ccccc1)NCCNCCc1ccc(O)c2nc(O)sc12`: the EC50 in experiment [1] was 1.58 nM.

For `COc1ccc(CCNCCN(C)C(=O)CCOCCc2ccccc2)c2sc(=O)[nH]c12`, the EC50 in experiment [1] is over 1000 nM.

Regarding `CCCCN(CCNCCc1ccc(O)c2[nH]c(=O)sc12)C(=O)CCOCCc1ccccc1`, the result in the experiment with Cavia porcellus [2] was inactive. Besides, the result in the experiment with Cavia porcellus [3] was Active. Moreover, the ED80 in the experiment on Cavia porcellus [4] was determined as 2.6 µg/kg. The Activity entry in the experiment filed under Cavia porcellus [5] was “Dose-dependent effect”. Besides, in experiment [1], the EC50 was 1.58 nM.

In the case of `CCCN(CCNCCc1ccc(O)c2[nH]c(=O)sc12)C(=O)CCOCCc1ccccc1`, in experiment [1], the EC50 is 7.94 nM.

Turning to `CCN(CCNCCc1ccc(O)c2[nH]c(=O)sc12)C(=O)CCOCCc1ccccc1`, in experiment [1], the EC50 is 1 nM.

In the case of `CC(C)(CNCCc1ccc(O)c2[nH]c(=O)sc12)NC(=O)CCOCCc1ccccc1`, the EC50 in experiment [1] is 7.94 nM.

Turning to `CN(CCNCCc1ccc(O)c2[nH]c(=O)sc12)C(=O)CCOCCc1ccccc1`, the EC50 in experiment [1] was 0.501 nM.

As to `COc1ccc(CC(C)NCC(O)c2ccc(O)c(NC=O)c2)cc1` (configuration not stated) [FORMOTEROL], in the experiment on Cavia porcellus [4], the ED80 stood at 1.4 µg/kg.

For the compound `CN(CCc1ccc(O)c2[nH]c(=O)sc12)CCN(C)C(=O)CCOCCc1ccccc1`, in experiment [1], the EC50 is over 1000 nM.

`OCc1cc(C(O)CNCCCCCCOCCCCc2ccccc2)ccc1O` (configuration not stated) [SALMETEROL] displayed an ED80 in the experiment on Cavia porcellus [4] of 0.7 µg/kg.

In general, EC50 refers to the midpoint of the concentration-response curve.
